Test results from BindingDB's records for patent US8476306 (The Medicines, 2013).

Target: Urokinase-type plasminogen activator (Homo sapiens, UniProt P00749)
Test: Enzyme Assay
Settings: 24 °C
Text: Inhibition constant of the compound against Plasminogen activator urokinase

Row | Ki | SMILES
1 | 0.12 µM | N=C(N)c1ccc(CNC(=O)CNC(=O)[C@@H](CO)NS(=O)(=O)Cc2ccc(CN)cc2)cc1 [US8476306, 6.11]
2 | 0.1 µM | N=C(N)c1ccc(CNC(=O)CNC(=O)[C@@H](CO)NS(=O)(=O)Cc2ccncc2)cc1 [US8476306, 6.24]
3 | 0.024 µM | N=C(N)c1ccc(CNC(=O)[C@H](CCCCN)NC(=O)[C@@H](CO)NS(=O)(=O)Cc2ccccc2)cc1 [US8476306, 8.1]
4 | 0.0089 µM | N=C(N)c1ccc(CNC(=O)[C@H](CCCN=C(N)N)NC(=O)[C@@H](CO)NS(=O)(=O)Cc2ccccc2)cc1 [US8476306, 8.2]
